Read-outs that look alike come from different tables or passages of the source.

The target of the assay is CFTR (Homo sapiens, UniProt P13569). Kind of assay: Membrane Potential Dye, Enteroid Assay A. Conditions: for EC50: read-out: Ent. A EC50. It is filed as cell-based. A digest of the protocol:
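Enteroid cells were loaded with methyl oxonol membrane potential dye (plus CaCCinh-A01 and Chicago Sky Blue) for 25 min at room temperature. Chloride transport was started by switching to chloride-free gluconate stimulation solution, with fluorescence read for 15 min. Activity was expressed as % of a triple-combination CFTR modulator control (3 μM, 3 μM, 300 nM acute).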

Chain of CFTR (P13569 with tags, fused parts or gaps DEL508-508): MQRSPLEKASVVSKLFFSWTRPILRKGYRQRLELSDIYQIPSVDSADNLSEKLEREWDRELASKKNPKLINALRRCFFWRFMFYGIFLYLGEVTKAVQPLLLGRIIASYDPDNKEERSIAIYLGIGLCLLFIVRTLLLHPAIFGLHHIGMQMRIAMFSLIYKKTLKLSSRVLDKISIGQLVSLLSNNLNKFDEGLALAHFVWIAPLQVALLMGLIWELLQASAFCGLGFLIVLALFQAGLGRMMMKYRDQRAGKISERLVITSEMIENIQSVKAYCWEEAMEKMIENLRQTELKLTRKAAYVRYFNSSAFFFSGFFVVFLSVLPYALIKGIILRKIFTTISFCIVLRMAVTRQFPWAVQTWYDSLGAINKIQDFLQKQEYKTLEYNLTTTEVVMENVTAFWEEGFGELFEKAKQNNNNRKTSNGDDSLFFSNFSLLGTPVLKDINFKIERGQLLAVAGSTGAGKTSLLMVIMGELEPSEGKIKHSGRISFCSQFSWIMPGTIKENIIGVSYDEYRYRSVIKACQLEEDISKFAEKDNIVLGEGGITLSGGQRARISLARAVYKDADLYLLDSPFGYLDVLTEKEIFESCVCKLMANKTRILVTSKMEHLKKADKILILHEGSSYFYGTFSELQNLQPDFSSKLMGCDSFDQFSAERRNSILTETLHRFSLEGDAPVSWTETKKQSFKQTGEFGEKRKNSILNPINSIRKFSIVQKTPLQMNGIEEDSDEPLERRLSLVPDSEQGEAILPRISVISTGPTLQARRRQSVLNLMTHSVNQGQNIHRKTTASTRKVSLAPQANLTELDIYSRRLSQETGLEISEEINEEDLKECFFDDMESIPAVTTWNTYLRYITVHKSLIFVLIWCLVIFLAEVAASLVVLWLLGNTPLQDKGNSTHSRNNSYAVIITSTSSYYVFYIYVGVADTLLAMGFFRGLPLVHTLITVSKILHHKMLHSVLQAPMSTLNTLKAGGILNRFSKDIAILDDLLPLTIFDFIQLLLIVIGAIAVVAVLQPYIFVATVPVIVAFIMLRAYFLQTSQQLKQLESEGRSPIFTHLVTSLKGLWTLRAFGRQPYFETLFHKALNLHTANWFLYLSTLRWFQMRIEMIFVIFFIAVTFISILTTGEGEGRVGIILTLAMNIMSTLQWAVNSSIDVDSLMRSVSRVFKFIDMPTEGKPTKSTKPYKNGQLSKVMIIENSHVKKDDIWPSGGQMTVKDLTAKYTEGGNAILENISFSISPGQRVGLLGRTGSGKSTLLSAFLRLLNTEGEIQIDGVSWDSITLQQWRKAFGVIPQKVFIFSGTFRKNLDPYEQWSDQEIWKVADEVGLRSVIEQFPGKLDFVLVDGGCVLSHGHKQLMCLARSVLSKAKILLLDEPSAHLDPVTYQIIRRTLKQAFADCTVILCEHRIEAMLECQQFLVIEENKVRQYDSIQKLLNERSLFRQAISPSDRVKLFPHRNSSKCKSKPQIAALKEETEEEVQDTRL

With `COc1cccc(C2CNC(=O)c3cccc(c3)S(=O)(=O)Nc3nc(cc(-c4c(C)cccc4C)n3)O2)c1` (centres unmarked) [Compound 158], for the setting “Table 8”, the “Ent. A Max Activity” value is reported as “+++ (+++ is >60%)” and the concentration giving a half-maximal response (EC50) is < 1 µM.
Consider `Cc1cccc(C)c1-c1cc2nc(n1)NS(=O)(=O)c1cccc(c1)C(=O)NCC1(CCN(CCC(C)CC(C)(C)C)CC1)CO2` (centres unmarked) [Compound 441], for which, where the note is “Enteroid Assay A”, the “Ent. A Max Activity” value was “+++ (+++ is >600%)” and the EC50 was < 1 µM.
For the molecule `Cc1cccc(C)c1-c1cc2nc(n1)NS(=O)(=O)c1cccc(c1)C(=O)NCC1(CCN(C(=O)c3ccccc3)CC1)CO2` [Compound 474], the concentration giving a half-maximal response (EC50) (Enteroid Assay A) was 3 to 30 µM.
In the case of `Cc1cccc(C)c1-c1cc2nc(n1)NS(=O)(=O)c1cccc(c1)C(=O)NCC(c1ccc(C(F)(F)C(F)(F)F)cc1)O2` (centres unmarked) [Compound 22, 6-(2,6-Dimethylphenyl)-2,2-dioxo-10-[4-(1,1,2,2,2-pentafluoroethyl)phenyl]-9-oxa-2λ^6-thia-3,5,12,19-tetrazatricyclo[12.3.1.14,8]nonadeca-1(18),4(19),5,7,14,16-hexaen-13-one], where the note is “Table 9”, the “Ent. A Max Activity” value is given as “+++ (+++ is >60%)” and the EC50 was < 1 µM.
On to `Cc1cccc(C)c1-c1cc2nc(n1)NS(=O)(=O)c1cccc(c1)C(=O)NCC1(CCN(C(=O)C3CC[C@@H](NC(=O)OC(C)(C)C)C3)CC1)CO2` (some centres unmarked) [Compound 470], for which, for the setting “Enteroid Assay A”, the “Ent. A Max Activity” value was “++ (++ is 30-60%)”.
In the case of `Cc1cnn(C)c1-c1cc2nc(n1)NS(=O)(=O)c1cccc(c1)C(=O)N[C@H](CC(C)C)CO2` [Compound 179], where the note is “Table 9”, the “Ent. A Max Activity” value is reported as “++ (++ is 30-60%)” and the EC50 was in the range of 3 to 30 µM.
As for `Cc1cccc(C)c1-c1cc2nc(n1)NS(=O)(=O)c1cccc(c1)C(=O)NCC1(CCN(C(=O)[C@]3(C)CCCN3C(=O)OC(C)(C)C)CC1)CO2` [Compound 472], for the setting “Enteroid Assay A”, the “Ent. A Max Activity” value is “++ (++ is 30-60%)” and the EC50 lay within 3 to 30 µM.
Regarding `Cc1cccc(C)c1-c1cc2nc(n1)NS(=O)(=O)c1cccc(c1)C(=O)NC[C@@H](c1ccc(C(C)(F)F)cc1)O2` (stereo in doubt) [Compound 400], where the note is “Table 8”, the “Ent. A Max Activity” value is reported as “+ (+ is <30%)” and the EC50 fell in the range of 1 to 3 µM.
As for `Cc1cccc(C)c1-c1cc2nc(n1)NS(=O)(=O)c1cccc(c1)C(=O)NC(C(C)C)CO2` (centres unmarked) [Compound 355], for the setting “Enteroid Assay A”, the “Ent. A Max Activity” value is listed as “++ (++ is 30-60%)” and the EC50 was 1 to 3 µM.
Take `CC[C@@H]1COc2cc(-c3c(C)cccc3C)nc(n2)NS(=O)(=O)c2cccc(c2)C(=O)N1` [Compound 353]: where the note is “Enteroid Assay A”, the “Ent. A Max Activity” value is reported as “++ (++ is 30-60%)” and the EC50 fell in the range of 3 to 30 µM.
As to `CC(C)C[C@@H]1COc2cc(C3=CCCC3)nc(n2)NS(=O)(=O)c2cccc(c2)C(=O)N1` [Compound 321], the EC50 (Enteroid Assay A) lay in the range of 3 to 30 µM.
As to `Cc1ccc(Cc2cccc(C)c2-c2cc3nc(n2)NS(=O)(=O)c2cccc(c2)C(=O)N[C@H](CC(C)C)CO3)cc1` [Compound 394], under “Table 9”, the “Ent. A Max Activity” value was “+++ (+++ is >60%)” and the EC50 was < 1 µM.
Regarding `Cc1ccccc1C1CNC(=O)c2cccc(c2)S(=O)(=O)Nc2nc(cc(-c3c(C)cccc3C)n2)O1` (centres unmarked) [Compound 279], where the note is “Table 8”, the “Ent. A Max Activity” value was “+++ (+++ is >60%)” and the EC50 is < 1 µM.
Turning to `Cc1cccc(C)c1-c1cc2nc(n1)NS(=O)(=O)c1cccc(c1)C(=O)N[C@@H]1CN(CCC3(C(F)(F)F)CC3)CC[C@H]1O2` [Compound 58, (3R,8R)-20-(2,6-Dimethylphenyl)-6-{2-[1-(trifluoromethyl)cyclopropyl]ethyl}-2-oxa-16λ^6-thia-6,9,17,19,22-pentaazatetracyclo[16.3.1.111,15.03,8]tricosa-1(21),11,13,15(23),18(22),19-hexaene-10,16,16-trione], where the note is “Table 9”, the “Ent. A Max Activity” value is on record as “+++ (+++ is >60%)” and the EC50 was < 1 µM.
For `Cc1cccc(C)c1-c1cc2nc(n1)NS(=O)(=O)c1cccc(c1)C(=O)NCC(c1cccc(C#N)c1)O2` (centres unmarked) [Compound 252], the EC50 (Table 8) is 3 to 30 µM.
For the molecule `Cc1cccc(C)c1-c1cc2nc(n1)NS(=O)(=O)c1cccc(c1)C(=O)NCC(c1ccc([Si](C)(C)C)cc1)O2` (centres unmarked) [Compound 15, 6-(2,6-Dimethylphenyl)-2,2-dioxo-10-(4-trimethylsilylphenyl)-9-oxa-2λ^6-thia-3,5,12,19-tetrazatricyclo[12.3.1.14,8]nonadeca-1(18),4(19),5,7,14,16-hexaen-13-one], under “Table 9”, the EC50 was < 1 µM.
For the molecule `Cc1cccc(C)c1-c1cc2nc(n1)NS(=O)(=O)c1cccc(c1)C(=O)NC(C)(C)CO2` [Compound 348], where the note is “Enteroid Assay A”, the “Ent. A Max Activity” value was “+++ (+++ is >600%)” and the EC50 lay in the range of 3 to 30 µM.
For the molecule `CCCCC1(CCCC)COc2cc(-c3c(C)cccc3C)nc(n2)NS(=O)(=O)c2cccc(c2)C(=O)N1` [Compound 185], for the setting “Table 9”, the “Ent. A Max Activity” value was “+++ (+++ is >60%)” and the EC50 was < 1 µM.
As for `CC(C)CCc1ccccc1-c1cc2nc(n1)NS(=O)(=O)c1cccc(c1)C(=O)N[C@H](CC(C)C)CO2` [Compound 104, (11R)-6-[2-(3-Methylbutyl)phenyl]-11-(2-methylpropyl)-9-oxa-2λ^6-thia-3,5,12,19-tetraazatricyclo[12.3.1.14,8]nonadeca-1(17),4,6,8(19),14(18),15-hexaene-2,2,13-trione], where the note is “Enteroid Assay A”, the “Ent. A Max Activity” value is “++ (++ is 30-60%)” and the EC50 was < 1 µM.
Consider `CC(C)C[C@@H]1COc2cc(-c3ccccc3OC(F)(F)F)nc(n2)NS(=O)(=O)c2cccc(c2)C(=O)N1` [Compound 103, (11R)-11-(2-Methylpropyl)-6-[2-(trifluoromethoxy)phenyl]-9-oxa-2λ^6-thia-3,5,12,19-tetraazatricyclo[12.3.1.14,8]nonadeca-1(17),4(19),5,7,14(18),15-hexaene-2,2,13-trione], for which, under “Enteroid Assay A”, the “Ent. A Max Activity” value was “+++ (+++ is >600%)” and the EC50 is < 1 µM.
Regarding `Cc1cccc(C)c1-c1cc2nc(n1)NS(=O)(=O)c1cccc(c1)CNC1C[C@@H](CN(C(=O)OCc3ccccc3)C1)O2` (stereo in doubt) [Compound 192], for the setting “Enteroid Assay A”, the “Ent. A Max Activity” value was “++ (++ is 30-60%)” and the EC50 lay within 1 to 3 µM.
Consider `Cc1cccc(C)c1-c1cc2nc(n1)NS(=O)(=O)c1cccc(c1)C(=O)NCC1(CCN(CCC(C)(C)C)CC1)CO2` [Compound 443], for which the “Ent. A Max Activity” value (Enteroid Assay A) is given as “++ (++ is 30-60%)”.
With `Cc1cccc(C)c1-c1cc2nc(n1)NS(=O)(=O)c1cccc(c1)C(=O)NC(CC1CCCC1)CO2` (centres unmarked) [Compound 188], where the note is “Table 8”, the “Ent. A Max Activity” value was “+++ (+++ is >60%)” and the EC50 is < 1 µM.
For `CC(C)C[C@@H]1COc2cc(C3=CCCCC3)nc(n2)NS(=O)(=O)c2cccc(c2)C(=O)N1` [Compound 327], where the note is “Enteroid Assay A”, the “Ent. A Max Activity” value is listed as “++ (++ is 30-60%)” and the EC50 fell in the range of 1 to 3 µM.
For `Cc1cccc(C)c1-c1cc2nc(n1)NS(=O)(=O)c1cccc(c1)C(=O)N[C@@H](CC1(C(F)(F)F)CC1)CO2` [Compound 288], where the note is “Table 8”, the “Ent. A Max Activity” value was “+++ (+++ is >60%)” and the EC50 was < 1 µM.
As to `CCC(C)(C)C(=O)N1CC[C@H]2Oc3cc(-c4c(C)cccc4C)nc(n3)NS(=O)(=O)c3cccc(c3)C(=O)N[C@@H]2C1` [Compound 370], for the setting “Table 9”, the “Ent. A Max Activity” value was “+++ (+++ is >60%)” and the EC50 lay within 1 to 3 µM.
Take `Cc1cccc(C)c1-c1cc2nc(n1)NS(=O)(=O)c1cccc(c1)C(=O)NCC(c1ccc(CC[Si](C)(C)C)cc1)O2` (centres unmarked) [Compound 127]: for the setting “Table 9”, the EC50 is < 1 µM.
Take `Cc1cccc(C)c1-c1cc2nc(n1)NS(=O)(=O)c1cccc(c1)C(=O)NCC1(CCN(C(=O)c3cc4ccccc4n3CC#N)CC1)CO2` [Compound 452]: for the setting “Enteroid Assay A”, the “Ent. A Max Activity” value is reported as “++ (++ is 30-60%)” and the EC50 is 1 to 3 µM.
As to `Cc1cccc(C)c1-c1cc2nc(n1)NS(=O)(=O)c1cccc(c1)C(=O)NCC(c1ccc(OC(C)C)cc1)O2` (centres unmarked) [Compound 249], the EC50 (Table 8) was < 1 µM.
As to `CC(C)C[C@@H]1COc2cc(-c3ccccc3OCC3CC3)nc(n2)NS(=O)(=O)c2cccc(c2)C(=O)N1` [Compound 344], for the setting “Enteroid Assay A”, the “Ent. A Max Activity” value was “++ (++ is 30-60%)” and the EC50 is 1 to 3 µM.
Regarding `Cc1cccc(C)c1-c1cc2nc(n1)NS(=O)(=O)c1cccc(c1)C(=O)N[C@@H]1CCN(Cc3ccccc3)C[C@H]1O2` (stereo in doubt) [Compound 382], where the note is “Table 9”, the “Ent. A Max Activity” value is given as “+++ (+++ is >60%)” and the half-maximal effective concentration (EC50) was < 1 µM.
With `Cc1cccc(C)c1-c1cc2nc(n1)NS(=O)(=O)c1cccc(c1)C(=O)NCC(c1ccccn1)O2` (centres unmarked) [Compound 234], for the setting “Table 8”, the “Ent. A Max Activity” value is “+ (+ is <30%)”.
For the molecule `Cc1cc(C(C)(C)C)ccc1[C@H]1CNC(=O)c2cccc(c2)S(=O)(=O)Nc2nc(cc(-c3c(C)cccc3C)n2)O1` (stereo in doubt) [Compound 156], where the note is “Table 8”, the “Ent. A Max Activity” value is reported as “+ (+ is <30%)”.
Regarding `Cc1cccc(C)c1-c1cc2nc(n1)NS(=O)(=O)c1cccc(c1)C(=O)N[C@@H]1CN(C3CCC4(CC3)CC4)CC[C@H]1O2` [Compound 374], for the setting “Table 9”, the “Ent. A Max Activity” value is on record as “+++ (+++ is >60%)” and the EC50 lay within 1 to 3 µM.
`Cc1cccc(C)c1-c1cc2nc(n1)NS(=O)(=O)c1cccc(c1)C(=O)N[C@@H]1CN(C3CC4(CCCCC4)C3)CC[C@H]1O2` [Compound 60, (3R,8R)-20-(2,6-Dimethylphenyl)-6-{spiro[3.5]nonan-2-yl}-2-oxa-16λ^6-thia-6,9,17,19,22-pentaazatetracyclo[16.3.1.111,15.03,8]tricosa-1(21),11,13,15(23),18(22),19-hexaene-10,16,16-trione]: where the note is “Table 9”, the “Ent. A Max Activity” value is given as “+++ (+++ is >60%)” and the EC50 was < 1 µM.
For `Cc1cccc(C)c1-c1cc2nc(n1)NS(=O)(=O)c1cccc(c1)C(=O)N[C@@H](CC(F)(F)F)CO2` (single isomer, unassigned) [Compound 93, 6-(2,6-dimethylphenyl)-11-(2,2,2-trifluoroethyl)-9-oxa-2λ^6-thia-3,5,12,19-tetraazatricyclo[12.3.1.14,8]nonadeca-1(17),4(19),5,7,14(18),15-hexaene-2,2,13-trione], where the note is “Table 9”, the “Ent. A Max Activity” value is given as “++ (++ is 30-60%)” and the EC50 was 3 to 30 µM.

Source of the values: patent US20230382924A1, “MODULATORS OF CYSTIC FIBROSIS TRANSMEMBRANE CONDUCTANCE REGULATOR” (VERTEX PHARMACEUTICALS INCORPORATED, priority 2020, published 2023).
